Broadly, the IC50 is the midpoint of a concentration-inhibition curve. In general, EC50 refers to the concentration that produces a half-maximal response. As a reminder, the AC50 is the concentration at which the activity in the assay is half-maximal.

Each structure is given as a SMILES string. The source made the active and inactive calls.

Data on five compounds can be found in ChEMBL document CHEMBL1201862, “PubChem BioAssay data set” (2004).

Assay [1] concerns the target T1, Runt-related transcription factor 1/Core-binding factor subunit beta (Homo sapiens, UniProt Q01196+Q13951). Description: inhibitors of RUNX1 Runt–CBFb-SMMHC binding, primary screen, biochemical, FRET, Cerulean-Runt, Venus-CBFb-SMMHC, uHTS (AID 1434).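 Further: partner is the CBFb-SMMHC leukemia fusion protein rather than wild-type CBFb.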 It is filed as protein assay.
Assay [2] concerns the target T1, Runt-related transcription factor 1/Core-binding factor subunit beta. Description: inhibitors of RUNX1 Runt–CBFb-SMMHC binding, biochemical, TR-FRET (AID 1438). The format is protein assay. On the technique in general: Time-resolved FRET reads energy transfer from a long-lived donor to a nearby acceptor.
A further assay concerns the target T2, Bcl-2-related protein A1 (Mus musculus, UniProt Q07440).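 Further: confirmatory dose–response counterscreen on Bfl-1, used to check hits from a UBC13 polyubiquitin inhibitor campaign.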
T2 sequence (Q07440 whole entry): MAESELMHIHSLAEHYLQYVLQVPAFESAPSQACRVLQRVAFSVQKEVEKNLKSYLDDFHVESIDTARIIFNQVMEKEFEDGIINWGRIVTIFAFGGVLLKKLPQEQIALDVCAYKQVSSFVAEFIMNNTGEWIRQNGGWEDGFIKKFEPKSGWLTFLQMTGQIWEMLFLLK
It is filed as functional.

Another assay addresses Melanocortin receptor 4 (Homo sapiens, UniProt P32245). It is filed as functional, cell-based.
The target of assay [3] is T3, Ubiquitin-conjugating enzyme E2 N (Homo sapiens, UniProt P61088).
T3 sequence (P61088 whole entry): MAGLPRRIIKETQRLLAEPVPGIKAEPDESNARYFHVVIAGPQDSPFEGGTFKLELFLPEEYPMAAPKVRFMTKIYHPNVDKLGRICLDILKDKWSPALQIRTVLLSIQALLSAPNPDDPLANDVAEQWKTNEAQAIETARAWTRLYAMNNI
The format is functional.

The nature of assay [4]: MDA-MB-231 cell growth inhibition, dose response, cytotoxicity control for RAD54 inhibitor project, CellTiter-Glo luminescence, cherry-pick (AID 651692). The format is functional, cell-based.
Assay [5] concerns the target T3, Ubiquitin-conjugating enzyme E2 N. The format is functional. This is another data set of the same source.
Assay [6] has as its target T4, Apoptotic protease-activating factor 1 (Homo sapiens, UniProt O14727).
T4 sequence (O14727 whole entry): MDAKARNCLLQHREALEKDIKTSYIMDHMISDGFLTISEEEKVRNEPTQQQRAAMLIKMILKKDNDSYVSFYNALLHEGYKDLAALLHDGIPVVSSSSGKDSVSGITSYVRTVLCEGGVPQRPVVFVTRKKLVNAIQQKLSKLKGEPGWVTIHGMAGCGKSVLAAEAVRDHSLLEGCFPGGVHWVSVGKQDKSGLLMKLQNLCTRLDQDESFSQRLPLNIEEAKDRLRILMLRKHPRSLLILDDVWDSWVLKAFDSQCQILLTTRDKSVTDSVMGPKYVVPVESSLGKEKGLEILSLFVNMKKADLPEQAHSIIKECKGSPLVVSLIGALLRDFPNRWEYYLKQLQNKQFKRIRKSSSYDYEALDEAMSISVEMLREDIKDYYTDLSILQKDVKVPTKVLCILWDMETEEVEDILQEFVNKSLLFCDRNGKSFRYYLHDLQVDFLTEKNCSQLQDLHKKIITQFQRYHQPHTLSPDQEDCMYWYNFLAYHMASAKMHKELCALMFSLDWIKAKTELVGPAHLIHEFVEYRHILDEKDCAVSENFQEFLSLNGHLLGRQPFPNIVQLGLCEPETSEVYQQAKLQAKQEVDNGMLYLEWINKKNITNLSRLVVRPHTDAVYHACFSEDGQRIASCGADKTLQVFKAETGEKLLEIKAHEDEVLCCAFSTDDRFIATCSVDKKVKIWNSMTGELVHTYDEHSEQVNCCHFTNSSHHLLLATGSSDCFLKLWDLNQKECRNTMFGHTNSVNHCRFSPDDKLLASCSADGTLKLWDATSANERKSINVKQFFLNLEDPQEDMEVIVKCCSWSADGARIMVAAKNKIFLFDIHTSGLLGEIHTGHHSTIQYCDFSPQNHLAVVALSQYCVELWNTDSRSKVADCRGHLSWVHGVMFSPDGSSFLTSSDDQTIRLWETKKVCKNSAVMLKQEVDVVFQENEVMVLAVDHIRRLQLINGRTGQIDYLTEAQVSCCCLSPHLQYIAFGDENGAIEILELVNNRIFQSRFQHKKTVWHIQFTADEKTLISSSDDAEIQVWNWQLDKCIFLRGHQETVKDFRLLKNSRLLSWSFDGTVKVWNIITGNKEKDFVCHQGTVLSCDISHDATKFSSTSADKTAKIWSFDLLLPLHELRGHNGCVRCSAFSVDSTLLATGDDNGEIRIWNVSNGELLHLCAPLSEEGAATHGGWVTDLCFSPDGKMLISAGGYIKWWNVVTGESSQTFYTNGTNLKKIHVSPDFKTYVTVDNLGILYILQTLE
The format is functional.

The target in assay [7] is DNA repair and recombination protein RAD54-like (Homo sapiens, UniProt Q92698). Description: inhibitors of human RAD54 branch migration, confirmation, biochemical, fluorescence, cherry-picked samples, dose series (AID 651657). It is filed as functional.
DNA repair and recombination protein RAD54-like, sequence (Q92698 whole entry): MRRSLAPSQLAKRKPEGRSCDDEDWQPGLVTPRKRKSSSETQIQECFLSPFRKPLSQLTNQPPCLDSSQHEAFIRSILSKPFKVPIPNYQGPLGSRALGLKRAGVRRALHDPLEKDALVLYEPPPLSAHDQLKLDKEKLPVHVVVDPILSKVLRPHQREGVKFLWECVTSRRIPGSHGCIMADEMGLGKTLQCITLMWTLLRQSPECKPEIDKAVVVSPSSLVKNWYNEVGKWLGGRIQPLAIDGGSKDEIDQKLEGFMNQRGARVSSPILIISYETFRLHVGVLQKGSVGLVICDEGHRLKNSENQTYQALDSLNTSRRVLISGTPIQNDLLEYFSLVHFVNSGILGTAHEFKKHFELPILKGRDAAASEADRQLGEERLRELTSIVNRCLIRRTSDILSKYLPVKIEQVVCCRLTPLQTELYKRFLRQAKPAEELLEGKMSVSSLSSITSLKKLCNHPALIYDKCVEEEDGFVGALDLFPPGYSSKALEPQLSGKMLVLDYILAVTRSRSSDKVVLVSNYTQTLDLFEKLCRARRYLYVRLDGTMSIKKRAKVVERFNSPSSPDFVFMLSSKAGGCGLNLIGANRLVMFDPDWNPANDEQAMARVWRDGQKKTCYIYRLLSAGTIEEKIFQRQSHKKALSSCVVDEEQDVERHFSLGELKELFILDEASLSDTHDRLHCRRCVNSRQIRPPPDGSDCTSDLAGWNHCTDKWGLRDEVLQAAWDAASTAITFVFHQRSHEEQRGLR
For another assay, the target named is T5, CAAX prenyl protease 2 (Saccharomyces cerevisiae S288c, UniProt Q03530).
T5 sequence (Q03530 whole entry): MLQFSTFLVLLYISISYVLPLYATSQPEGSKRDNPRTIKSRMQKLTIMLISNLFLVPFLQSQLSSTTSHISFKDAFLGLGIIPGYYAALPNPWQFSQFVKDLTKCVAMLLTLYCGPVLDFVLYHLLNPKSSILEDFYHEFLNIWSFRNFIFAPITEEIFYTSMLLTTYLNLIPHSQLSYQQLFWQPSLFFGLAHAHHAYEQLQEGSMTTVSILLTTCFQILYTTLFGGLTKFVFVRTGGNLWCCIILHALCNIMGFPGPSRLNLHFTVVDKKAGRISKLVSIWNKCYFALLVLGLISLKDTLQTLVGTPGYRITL
The format is biochemical.

A short description of assay [8]: mammalian cell cytotoxicity, dose response, cytotoxicity control, plate reader, cherry-pick samples (AID 504397). It is filed as functional, cell-based.
In assay [9] the target is Glucose-6-phosphate 1-dehydrogenase (Homo sapiens, UniProt P11413). The experiment in a line: human G6PD enzyme inhibitors, dose response, selectivity assay for P. falciparum G6PD inhibitor project, biochemical, fluorescence (AID 504792). The format is functional.
Assay [10] has as its target G-protein coupled receptor 55 (Homo sapiens, UniProt Q9Y2T6). Description: GPR55 agonists via beta-arrestin recruitment, primary screen, imaging, U2OS cells, beta-arrestin-GFP redistribution (AID 1961). It is filed as functional. (Arrestin recruitment assays detect the binding of arrestin to an activated receptor.)
The next assay concerns the target Trypsin (Sus scrofa, UniProt P00761). The experiment in a line: porcine trypsin inhibitors, dose response, selectivity assay for Rce1 protease inhibitor project, biochemical, quenched peptide fluorescence, cherry-pick (AID 488789).
The target in assay [11] is T6, Tyrosine-protein phosphatase non-receptor type 22 (Homo sapiens, UniProt Q9Y2R2).
T6 sequence (Q9Y2R2 whole entry): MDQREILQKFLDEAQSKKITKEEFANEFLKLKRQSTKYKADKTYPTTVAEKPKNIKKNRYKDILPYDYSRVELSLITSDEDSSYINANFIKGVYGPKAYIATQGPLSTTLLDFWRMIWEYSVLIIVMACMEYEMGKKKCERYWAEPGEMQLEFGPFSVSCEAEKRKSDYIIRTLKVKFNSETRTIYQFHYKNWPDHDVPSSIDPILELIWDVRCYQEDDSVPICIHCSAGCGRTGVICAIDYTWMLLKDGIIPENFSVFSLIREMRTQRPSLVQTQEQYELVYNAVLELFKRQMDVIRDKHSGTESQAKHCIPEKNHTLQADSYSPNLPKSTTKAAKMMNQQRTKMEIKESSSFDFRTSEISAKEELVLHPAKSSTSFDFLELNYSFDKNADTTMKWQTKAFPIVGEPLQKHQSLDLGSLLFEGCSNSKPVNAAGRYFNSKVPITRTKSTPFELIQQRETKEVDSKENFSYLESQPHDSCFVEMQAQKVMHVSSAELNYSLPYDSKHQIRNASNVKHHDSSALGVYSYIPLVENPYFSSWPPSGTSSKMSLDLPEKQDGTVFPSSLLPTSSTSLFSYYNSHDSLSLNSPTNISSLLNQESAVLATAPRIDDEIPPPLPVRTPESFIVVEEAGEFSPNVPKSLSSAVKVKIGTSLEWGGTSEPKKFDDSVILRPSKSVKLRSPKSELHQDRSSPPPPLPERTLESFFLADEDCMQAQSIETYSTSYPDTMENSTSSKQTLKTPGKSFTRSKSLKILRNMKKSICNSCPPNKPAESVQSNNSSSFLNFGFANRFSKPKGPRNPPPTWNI
The experiment in a line: SAR LYP1 Fluorescent Assay using pCAP substrate for In Vitro dose response studies - Set 2. [Related pubchem assays (depositor defined):AID1779, AID1784, AID2135, AID449727]. The format is functional.

In assay [12] the target is T6, Tyrosine-protein phosphatase non-receptor type 22. The experiment in a line: LYP (PTPN22) phosphatase inhibitor potency, SAR follow-up, biochemical, pCAP fluorogenic substrate, fluorescence, set 3 (AID 449727). The format is functional.
The target is the same in assay [13]. Description: PubChem AID 2135.
For assay [14] the target is unchanged. The experiment in a line: SAR LYP1 Fluorescent Assay using OMFP substrate for In Vitro dose response studies - Set 2. [Related pubchem assays (depositor defined):AID1779, AID1784, AID2140, AID449726, AID488869]. It is filed as functional.
Assay [15] concerns the target Tyrosine-protein phosphatase non-receptor type 12 (Homo sapiens, UniProt Q05209). The experiment in a line: SAR Selectivity Analysis of small molecule inhibitors of PEST using pCAP in a fluorescence assay. [Related pubchem assays (depositor defined):AID1779, AID1784, AID2135]. It is filed as functional.
The target of assay [16] is T6, Tyrosine-protein phosphatase non-receptor type 22. Description: SAR LYP1 Fluorescent Assay using OMFP substrate for In Vitro dose response studies - Set 3. [Related pubchem assays (depositor defined):AID1779, AID1784, AID2140, AID2686]. It is filed as functional.
Assay [17] has as its target T7, Tyrosine-protein phosphatase non-receptor type 7 (Homo sapiens, UniProt P35236).
T7 sequence (P35236 whole entry): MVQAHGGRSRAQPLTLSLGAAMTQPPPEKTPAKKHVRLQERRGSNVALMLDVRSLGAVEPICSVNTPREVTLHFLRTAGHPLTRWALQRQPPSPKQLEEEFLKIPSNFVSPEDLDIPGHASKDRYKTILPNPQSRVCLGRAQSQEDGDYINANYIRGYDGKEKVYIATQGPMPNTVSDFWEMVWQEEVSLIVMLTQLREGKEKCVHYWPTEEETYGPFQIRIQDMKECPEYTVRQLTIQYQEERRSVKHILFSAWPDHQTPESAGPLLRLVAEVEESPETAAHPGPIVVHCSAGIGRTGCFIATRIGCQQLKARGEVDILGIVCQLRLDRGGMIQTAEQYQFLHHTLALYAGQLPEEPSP
The experiment in a line: HePTP (PTPN7) phosphatase inhibitor potency, SAR follow-up, biochemical, set 2 (AID 449736). The format is functional.

The target of assay [18] is T8, Voltage-dependent T-type calcium channel subunit alpha-1H (Homo sapiens, UniProt O95180). Description: Inhibitors of T-Type Calcium Channels (Cav3.2 HEK whole cell CRC). [Related pubchem assays (depositor defined):AID449739, AID463087, AID489005, AID493021, AID493022, AID493023, AID493041, AID504579, AID504584]. The format is functional, cell-based, HEK293.
T8 sequence (O95180 whole entry): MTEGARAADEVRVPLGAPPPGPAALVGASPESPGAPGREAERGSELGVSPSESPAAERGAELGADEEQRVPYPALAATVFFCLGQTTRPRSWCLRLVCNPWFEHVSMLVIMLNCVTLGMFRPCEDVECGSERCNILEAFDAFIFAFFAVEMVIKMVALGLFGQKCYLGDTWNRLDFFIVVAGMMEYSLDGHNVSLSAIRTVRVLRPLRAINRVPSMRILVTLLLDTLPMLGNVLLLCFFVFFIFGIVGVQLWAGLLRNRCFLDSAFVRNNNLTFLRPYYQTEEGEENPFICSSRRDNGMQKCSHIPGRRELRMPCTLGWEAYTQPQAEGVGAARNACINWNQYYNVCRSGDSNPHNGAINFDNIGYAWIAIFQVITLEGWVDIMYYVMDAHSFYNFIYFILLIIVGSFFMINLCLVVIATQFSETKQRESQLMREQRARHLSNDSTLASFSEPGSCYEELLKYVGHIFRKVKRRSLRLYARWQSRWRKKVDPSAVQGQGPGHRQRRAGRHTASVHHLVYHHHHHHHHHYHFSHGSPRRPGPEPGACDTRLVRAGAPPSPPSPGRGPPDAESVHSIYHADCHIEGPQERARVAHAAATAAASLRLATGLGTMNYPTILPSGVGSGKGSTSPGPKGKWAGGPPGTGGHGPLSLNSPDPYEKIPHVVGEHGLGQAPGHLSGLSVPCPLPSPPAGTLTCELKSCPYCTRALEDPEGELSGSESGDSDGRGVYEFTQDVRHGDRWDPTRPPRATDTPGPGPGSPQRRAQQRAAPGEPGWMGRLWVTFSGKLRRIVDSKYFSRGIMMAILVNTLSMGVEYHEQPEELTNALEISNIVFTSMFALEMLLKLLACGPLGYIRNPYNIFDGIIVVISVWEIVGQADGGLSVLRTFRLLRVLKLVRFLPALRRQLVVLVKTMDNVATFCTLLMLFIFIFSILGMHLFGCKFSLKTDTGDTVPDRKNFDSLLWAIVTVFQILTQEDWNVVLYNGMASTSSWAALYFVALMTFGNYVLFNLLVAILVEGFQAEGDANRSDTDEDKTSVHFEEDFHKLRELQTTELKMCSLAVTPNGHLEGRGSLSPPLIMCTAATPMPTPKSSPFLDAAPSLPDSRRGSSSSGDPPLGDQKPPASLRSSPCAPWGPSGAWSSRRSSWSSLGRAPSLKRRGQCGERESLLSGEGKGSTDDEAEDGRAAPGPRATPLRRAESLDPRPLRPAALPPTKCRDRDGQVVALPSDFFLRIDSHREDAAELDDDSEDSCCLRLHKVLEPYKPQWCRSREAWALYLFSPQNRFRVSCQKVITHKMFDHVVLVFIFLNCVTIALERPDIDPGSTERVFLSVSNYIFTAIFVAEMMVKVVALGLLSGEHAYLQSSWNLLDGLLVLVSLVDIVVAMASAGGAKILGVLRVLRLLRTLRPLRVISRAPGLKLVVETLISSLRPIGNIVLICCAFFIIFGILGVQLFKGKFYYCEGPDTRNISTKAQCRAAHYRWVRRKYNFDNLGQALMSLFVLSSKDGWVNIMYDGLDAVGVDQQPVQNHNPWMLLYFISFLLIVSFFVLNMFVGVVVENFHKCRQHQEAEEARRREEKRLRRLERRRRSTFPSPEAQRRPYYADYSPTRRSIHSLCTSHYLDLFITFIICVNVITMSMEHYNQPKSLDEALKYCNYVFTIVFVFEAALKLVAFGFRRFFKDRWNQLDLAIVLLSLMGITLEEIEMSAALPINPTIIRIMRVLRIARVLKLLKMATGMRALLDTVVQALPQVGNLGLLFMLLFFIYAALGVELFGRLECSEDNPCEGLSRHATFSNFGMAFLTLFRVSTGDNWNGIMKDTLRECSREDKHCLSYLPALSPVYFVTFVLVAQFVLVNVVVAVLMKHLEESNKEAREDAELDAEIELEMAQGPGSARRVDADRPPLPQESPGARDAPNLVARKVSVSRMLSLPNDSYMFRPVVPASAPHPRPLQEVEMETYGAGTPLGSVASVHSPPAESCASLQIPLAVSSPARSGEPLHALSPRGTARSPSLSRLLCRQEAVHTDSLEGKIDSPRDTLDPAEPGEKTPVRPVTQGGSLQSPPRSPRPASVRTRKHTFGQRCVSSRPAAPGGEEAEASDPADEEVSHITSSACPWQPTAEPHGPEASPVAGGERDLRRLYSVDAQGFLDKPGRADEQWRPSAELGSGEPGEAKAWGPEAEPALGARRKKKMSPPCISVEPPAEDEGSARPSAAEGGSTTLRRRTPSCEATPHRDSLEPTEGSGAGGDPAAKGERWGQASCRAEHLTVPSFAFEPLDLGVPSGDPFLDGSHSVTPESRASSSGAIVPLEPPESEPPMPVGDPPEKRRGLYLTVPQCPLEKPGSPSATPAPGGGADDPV
Assay [19] concerns the target T8, Voltage-dependent T-type calcium channel subunit alpha-1H. Description: Cav3.2 T-type channel inhibitors, synthesized analogs, SAR follow-up, cell-based, synthetic library set 2, HEK293 HH8, Fluo-4 (AID 493023). It is filed as functional.

T1 sequence (Q01196 whole entry, the tested form may be a part): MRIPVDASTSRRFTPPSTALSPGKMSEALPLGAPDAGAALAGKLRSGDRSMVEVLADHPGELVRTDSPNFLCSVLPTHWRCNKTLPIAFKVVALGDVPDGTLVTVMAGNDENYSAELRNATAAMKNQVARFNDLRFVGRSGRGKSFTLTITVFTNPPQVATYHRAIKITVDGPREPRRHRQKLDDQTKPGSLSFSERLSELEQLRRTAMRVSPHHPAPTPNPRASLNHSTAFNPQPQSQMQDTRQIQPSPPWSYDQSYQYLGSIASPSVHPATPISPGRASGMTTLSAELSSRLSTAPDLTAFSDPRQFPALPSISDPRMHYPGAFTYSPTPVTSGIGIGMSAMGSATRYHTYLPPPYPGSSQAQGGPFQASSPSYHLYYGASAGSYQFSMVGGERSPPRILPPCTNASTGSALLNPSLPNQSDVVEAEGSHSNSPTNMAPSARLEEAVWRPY
T1 sequence (Q13951 whole entry, the tested form may be a part): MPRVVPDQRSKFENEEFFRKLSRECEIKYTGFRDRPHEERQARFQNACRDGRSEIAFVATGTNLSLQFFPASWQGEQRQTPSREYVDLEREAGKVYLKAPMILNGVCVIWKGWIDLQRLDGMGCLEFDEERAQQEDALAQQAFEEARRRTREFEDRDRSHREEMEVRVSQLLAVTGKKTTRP
Tyrosine-protein phosphatase non-receptor type 12, sequence (Q05209 whole entry): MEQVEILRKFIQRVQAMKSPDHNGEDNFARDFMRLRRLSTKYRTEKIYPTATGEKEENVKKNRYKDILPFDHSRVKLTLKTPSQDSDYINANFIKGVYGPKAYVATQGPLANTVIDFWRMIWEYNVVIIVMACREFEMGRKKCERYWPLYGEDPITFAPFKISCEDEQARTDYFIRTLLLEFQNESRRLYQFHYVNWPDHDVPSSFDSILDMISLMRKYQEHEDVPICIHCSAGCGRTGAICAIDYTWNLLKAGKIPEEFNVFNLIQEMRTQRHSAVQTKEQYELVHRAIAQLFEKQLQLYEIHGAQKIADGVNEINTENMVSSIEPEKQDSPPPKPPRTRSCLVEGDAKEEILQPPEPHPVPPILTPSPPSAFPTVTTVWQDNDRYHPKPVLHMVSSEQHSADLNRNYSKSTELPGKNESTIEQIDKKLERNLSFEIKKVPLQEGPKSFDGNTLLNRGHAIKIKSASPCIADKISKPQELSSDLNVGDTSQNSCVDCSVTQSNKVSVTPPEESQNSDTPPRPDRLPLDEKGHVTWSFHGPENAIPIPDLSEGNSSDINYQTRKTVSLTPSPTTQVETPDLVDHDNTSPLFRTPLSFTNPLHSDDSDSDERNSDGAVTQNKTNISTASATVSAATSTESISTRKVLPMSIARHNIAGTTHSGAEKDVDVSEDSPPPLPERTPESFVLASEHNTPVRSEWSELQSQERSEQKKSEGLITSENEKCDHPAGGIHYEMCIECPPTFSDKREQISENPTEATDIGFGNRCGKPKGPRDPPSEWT
Melanocortin receptor 4, sequence (P32245 whole entry): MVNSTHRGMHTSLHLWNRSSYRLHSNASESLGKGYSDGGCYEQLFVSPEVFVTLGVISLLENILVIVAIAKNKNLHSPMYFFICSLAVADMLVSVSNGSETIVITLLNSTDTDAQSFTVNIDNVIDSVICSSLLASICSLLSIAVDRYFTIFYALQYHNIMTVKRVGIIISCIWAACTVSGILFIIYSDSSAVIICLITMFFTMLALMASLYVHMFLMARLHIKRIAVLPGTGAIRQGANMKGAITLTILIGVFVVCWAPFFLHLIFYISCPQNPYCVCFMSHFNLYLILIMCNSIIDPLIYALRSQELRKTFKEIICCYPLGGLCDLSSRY
Trypsin, sequence (P00761 whole entry): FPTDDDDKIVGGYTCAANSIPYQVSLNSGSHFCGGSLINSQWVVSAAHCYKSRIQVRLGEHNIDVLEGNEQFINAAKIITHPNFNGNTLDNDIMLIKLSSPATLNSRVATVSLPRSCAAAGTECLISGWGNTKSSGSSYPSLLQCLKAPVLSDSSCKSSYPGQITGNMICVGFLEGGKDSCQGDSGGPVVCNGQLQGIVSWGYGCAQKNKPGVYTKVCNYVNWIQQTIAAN

As for `Cc1ccc(CNC(=O)NCc2ccccc2)cc1`, the IC50 in [1] and in assay [2] was > 100 µM (inactive) throughout.

In the case of `Cc1ccc(-c2csc3nc4c5ccccc5c(NCCCN(C)C)nn4c(=O)c23)cc1`, the IC50 at Bcl-2-related protein A1 is > 20 µM (inactive); in assay [3] it was 13.7 µM (active); in assay [5], 3.7 µM (active); in assay [6], 40 µM (active). Besides, at Melanocortin receptor 4, the EC50 is > 89.2 µM (inactive). Moreover, the results for the AC50 in [4] and in assay [7] were 13.6 µM (active) and 13.3 µM (active), respectively.

`Cc1cc(NC(=O)c2oc3ccccc3c2C)ccc1-n1cnnn1`: the AC50 on CAAX prenyl protease 2 was 0.558 µM (active); in [8], > 350 µM (inactive); on Trypsin, > 100 µM (inactive). The IC50 in assay [9] is > 80 µM (inactive). Moreover, the EC50 in assay [10] is 2.68 µM (active).

On to `N#C/C(=C/c1ccc(OCc2ccc(F)cc2)c(Br)c1)c1ccc(C(=O)O)cc1`, for which the IC50 in assay [11] is 10.8 µM (active); in [12] it was 15.8 µM (active); in assay [13] it was 4.37 µM (active); in [14] it was 13.7 µM (active); in assay [15], 7.56 µM (active); in [16], 37 µM (active). Further, the IC50 in [17] was 1.36 µM (active).

On to `CC(C)(C)CCN1C[C@@H]2[C@@H](CNC(=O)c3cc(Cl)cc(Cl)c3)[C@@H]2C1`, for which the IC50 in assay [18] is 0.036 µM (active). Also, in [19], the EC50 was 0.15 µM (active).
